Test system: fresh human erythrocytes
Assay type: cell-based
Method: The haemolysis assay was adapted from the method of Shin et al. (Ref. 12). Fresh human erythrocytes were used to test the haemolytic activities of the peptides. Whole blood was collected in a sterile tube with a 4% w/v sodium citrate solution (in a 1:10 ratio sodium citrate:whole blood), put in ice and centrifuged at 1000 g for 5 minutes at 4° C.
The supernatant, including the leucocytes above the erythrocyte pellet, was removed carefully and discarded. Intact erytrocytes were washed three times with 2 volumes (1 mL) of prechilled pyrogen-free saline (PBS 1×). Erythrocyte suspensions were adjusted to 0.8% (8 ul in 1 mL or 160 uL in 20 mL) of PBS 1×. […]
Subsequently, intact erythrocyte were pelletted by centrifugation at 1000 g for 5 minutes at 4° C. One hundred microliters of supernatant from each well was transferred accordingly to a new 96-well microtiter plate, and the amount of haemoglobin released into the supernatant was determined by reading the absorbance at 414 nm against a reference wavelength of 490 nm. […]
The haemolysis was determined by two different assays as described in Example VIII. In Tables 7-9 all haemolysis percentage values, determined by UV-VIS spectrophotometry, are reported. […]

Triton X 100
Haemolysis, %: 100.0%

Source: US8785399B2, “Antibacterial peptides” (Spiderbiotech S.R.A., priority 2008, dated 2014)
